Measurements reported in US9150566B2, “2-(1,2,3-triazol-2-yl)benzamide and 3-(1,2,3-triazol-2-YL)picolinamide derivatives as orexin receptor antagonists” (ACTELION PHARMACEUTICALS LTD., priority 2011, dated 2015).
Read-outs that look alike come from different tables or passages of the source.

Legend:
human orexin-1 receptor = human orexin-1 receptor (Homo sapiens (Human), UniProt O43613); assay: In vitro intracellular calcium measurements (FLIPR), antagonistic activity on orexin-1 receptor; format: cell-based; conditions: read-out: IC50 OX1
Chain of human orexin-1 receptor (O43613 whole entry): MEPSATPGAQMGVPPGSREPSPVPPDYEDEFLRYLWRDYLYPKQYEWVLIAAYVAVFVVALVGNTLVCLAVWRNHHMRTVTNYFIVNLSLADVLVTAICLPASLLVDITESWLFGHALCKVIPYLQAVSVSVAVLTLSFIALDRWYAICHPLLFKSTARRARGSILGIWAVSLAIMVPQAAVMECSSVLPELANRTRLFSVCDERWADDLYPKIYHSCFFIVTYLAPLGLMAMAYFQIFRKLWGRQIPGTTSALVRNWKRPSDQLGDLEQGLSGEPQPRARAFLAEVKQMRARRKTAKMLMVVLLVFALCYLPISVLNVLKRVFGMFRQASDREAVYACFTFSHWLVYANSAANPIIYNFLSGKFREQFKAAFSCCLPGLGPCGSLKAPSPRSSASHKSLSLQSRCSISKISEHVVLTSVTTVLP
Experimental: (§1) In Vitro Assay: Intracellular Calcium Measurements:
(§2) Chinese hamster ovary (CHO) cells expressing the human orexin-1 receptor and the human orexin-2 receptor, respectively, are grown in culture medium (Ham F-12 with L-Glutamine) containing 300 μg/mL G418, 100 U/mL penicillin, 100 μg/mL streptomycin and 10% heat inactivated fetal calf serum (FCS). The cells are seeded at 20′000 cells/well into 384-well black clear bottom sterile plates (Greiner). The seeded plates are incubated overnight at 37° C. in 5% CO2.
(§3) Within the Fluorescent Imaging Plate Reader (FLIPR Tetra, Molecular Devices), antagonists are added to the plate in a volume of 10 μL/well, incubated for 120 min and finally 10 μL/well of agonist is added. Fluorescence is measured for each well at 1 second intervals, and the height of each fluorescence peak is compared to the height of the fluorescence peak induced by 3 nM orexin-A with vehicle in place of antagonist. […] Optimized conditions were achieved by adjustment of pipetting speed and cell splitting regime. The calculated IC50 values may fluctuate depending on the daily cellular assay performance. Fluctuations of this kind are known to those skilled in the art.

human orexin-2 receptor = human orexin-2 receptor (Homo sapiens (Human), UniProt O43614); assay: In vitro intracellular calcium measurements (FLIPR), antagonistic activity on orexin-2 receptor; format: cell-based; conditions: read-out: IC50 OX2
Chain of human orexin-2 receptor (O43614 whole entry): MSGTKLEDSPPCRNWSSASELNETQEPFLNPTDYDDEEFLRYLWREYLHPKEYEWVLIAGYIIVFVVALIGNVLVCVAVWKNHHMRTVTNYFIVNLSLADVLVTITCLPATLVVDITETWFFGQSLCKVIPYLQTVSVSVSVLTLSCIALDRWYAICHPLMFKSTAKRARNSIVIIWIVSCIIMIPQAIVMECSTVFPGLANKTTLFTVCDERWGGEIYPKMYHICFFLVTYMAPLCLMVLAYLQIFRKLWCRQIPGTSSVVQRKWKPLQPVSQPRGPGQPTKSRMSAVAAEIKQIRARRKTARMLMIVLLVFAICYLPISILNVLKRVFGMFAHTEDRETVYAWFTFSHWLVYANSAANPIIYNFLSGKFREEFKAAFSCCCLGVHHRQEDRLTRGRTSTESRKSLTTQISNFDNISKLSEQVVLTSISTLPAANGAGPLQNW
Experimental: as §1, §2, §3

CYP3A4 = CYP3A4 (Homo sapiens (Human), UniProt P08684); assay: CYP3A4 inhibition assay (human liver microsomes, testosterone 6β-hydroxylation); conditions: read-out: CYP3A4 IC50, 40 μM testosterone
Chain of CYP3A4 (P08684 whole entry): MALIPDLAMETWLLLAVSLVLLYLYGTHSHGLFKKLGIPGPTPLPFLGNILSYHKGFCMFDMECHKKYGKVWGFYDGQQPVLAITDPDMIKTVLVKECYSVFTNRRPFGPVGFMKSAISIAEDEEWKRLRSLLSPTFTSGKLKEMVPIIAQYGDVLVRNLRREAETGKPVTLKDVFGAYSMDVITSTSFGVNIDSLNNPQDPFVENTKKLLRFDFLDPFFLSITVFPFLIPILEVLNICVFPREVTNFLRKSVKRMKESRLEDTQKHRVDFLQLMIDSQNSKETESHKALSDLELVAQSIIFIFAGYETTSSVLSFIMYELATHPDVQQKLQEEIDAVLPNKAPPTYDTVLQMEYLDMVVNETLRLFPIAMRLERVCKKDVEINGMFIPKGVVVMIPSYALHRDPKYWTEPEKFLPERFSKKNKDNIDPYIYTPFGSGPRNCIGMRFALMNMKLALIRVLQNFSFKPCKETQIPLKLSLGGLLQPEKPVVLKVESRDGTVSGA

[1] = CHO cells expressing human orexin-1 receptor, FLIPR, 3 nM orexin-A agonist, 120 min antagonist incubation, geometric mean if determined several times
[2] = CHO cells expressing human orexin-2 receptor, FLIPR, 3 nM orexin-A agonist, 120 min antagonist incubation, geometric mean if determined several times

SMILES | IC50 (human orexin-1 receptor; [1]) [nM] | IC50 (human orexin-2 receptor; [2]) [nM] | IC50 (CYP3A4) [nM] | IC50 (human orexin-1 receptor) [nM] | IC50 (human orexin-2 receptor) [nM]
Cc1cccc(C(=O)N2C[C@@H](C)OC[C@H]2Cc2cc(-c3ncccn3)ccc2F)c1-n1nccn1 [Example 150, [(2R,5R)-5-(2-Fluoro-5-pyrimidin-2-yl-benzyl)-2-methyl-morpholin-4-yl]-(3-methyl-2-[1,2,3]triazol-2-yl-phenyl)-methanone] | 9 | 506 | 32000 | – | –
Cc1ccc(C(=O)N2C[C@@H](C)OC[C@H]2Cc2cccc(-n3nccn3)c2)c(-n2nccn2)c1 [Example 101, [(2R,5R)-2-Methyl-5-(3-[1,2,3]triazol-2-yl-benzyl)-morpholin-4-yl]-(4-methyl-2-[1,2,3]triazol-2-yl-phenyl)-methanone] | – | – | 9700 | 2 | 155
Cc1cccc(C(=O)N2C[C@@H](C)OC[C@H]2Cc2cccc(-n3nccn3)c2)c1-n1nccn1 [Example 97, [(2R,5R)-2-Methyl-5-(3-[1,2,3]triazol-2-yl-benzyl)-morpholin-4-yl]-(3-methyl-2-[1,2,3]triazol-2-yl-phenyl)-methanone] | 3 | 237 | 11000 | – | –
Cc1ccc(-n2nccn2)c(C(=O)N2CCOC[C@H]2Cc2cc(-n3nccn3)ccc2Cl)c1 [Example 125, [(R)-3-(2-Chloro-5-[1,2,3]triazol-2-yl-benzyl)-morpholin-4-yl]-(5-methyl-2-[1,2,3]triazol-2-yl-phenyl)-methanone] | 7 | 626 | 22000 | – | –
COc1ccc(C(=O)N2CCOC[C@H]2Cc2cccc(-n3nccn3)c2)c(-n2nccn2)c1 [Example 93, (4-Methoxy-2-[1,2,3]triazol-2-yl-phenyl)-[(R)-3-(3-[1,2,3]triazol-2-yl-benzyl)-morpholin-4-yl]-methanone] | – | – | > 50000 | 5 | 2090
COc1ccc(C[C@@H]2COCCN2C(=O)c2ccccc2-n2nccn2)cc1-n1cccn1 [Example 14, [(R)-3-(4-Methoxy-3-pyrazol-1-yl-benzyl)-morpholin-4-yl]-(2-[1,2,3]triazol-2-yl-phenyl)-methanone] | 3 | 905 | > 50000 | – | –
Cc1ccc(-n2nccn2)c(C(=O)N2CCOC[C@H]2Cc2cccc(-c3nccs3)c2)c1 [Example 43, (5-Methyl-2-[1,2,3]triazol-2-yl-phenyl)-[(R)-3-(3-thiazol-2-yl-benzyl)-morpholin-4-yl]-methanone] | 0.3 | 273 | 1200 | – | –
Cc1ccc(C(=O)N2CCOC[C@H]2Cc2cc(-n3nccn3)ccc2C)c(-n2nccn2)c1 [Example 123, [(R)-3-(2-Methyl-5-[1,2,3]triazol-2-yl-benzyl)-morpholin-4-yl]-(4-methyl-2-[1,2,3]triazol-2-yl-phenyl)-methanone] | – | – | 27000 | 5 | 939
Cc1cc(C(=O)N2CCOC[C@H]2Cc2cc(-c3ncon3)ccc2F)c(-n2nccn2)cc1C [Example 179, (4,5-Dimethyl-2-[1,2,3]triazol-2-yl-phenyl)-[(R)-3-(2-fluoro-5-[1,2,4]oxadiazol-3-yl-benzyl)-morpholin-4-yl]-methanone] | 2 | 34 | 29000 | – | –
C[C@@H]1CN(C(=O)c2cc(Cl)ccc2-n2nccn2)[C@H](Cc2cccc(-c3ncccn3)c2)CO1 [Example 113, (5-Chloro-2-[1,2,3]triazol-2-yl-phenyl)-[(2R,5R)-2-methyl-5-(3-pyrimidin-2-yl-benzyl)-morpholin-4-yl]-methanone] | 2 | 110 | 26000 | – | –
COc1ccc(C[C@@H]2COCCN2C(=O)c2ccccc2-n2nccn2)cc1-c1ccccn1 [Example 3, [(R)-3-(4-Methoxy-3-pyridin-2-yl-benzyl)-morpholin-4-yl]-(2-[1,2,3]triazol-2-yl-phenyl)-methanone] | 4 | 3340 | 21000 | – | –
N#Cc1ccc(-n2nccn2)c(C(=O)N2CCOC[C@H]2Cc2cccc(-n3nccn3)c2)c1 [Example 31, 4-[1,2,3]Triazol-2-yl-3-[(R)-3-(3-[1,2,3]triazol-2-yl-benzyl)-morpholine-4-carbonyl]-benzonitrile] | 33 | 360 | > 50000 | – | –
COc1ccc(C[C@@H]2COCCN2C(=O)c2ccccc2-n2nccn2)cc1-c1ncccn1 [Example 5, [(R)-3-(4-Methoxy-3-pyrimidin-2-yl-benzyl)-morpholin-4-yl]-(2-[1,2,3]triazol-2-yl-phenyl)-methanone] | 4 | 2950 | > 50000 | – | –
Cc1ccc(-n2nccn2)c(C(=O)N2CCOC[C@H]2Cc2cccc(-n3ccnn3)c2)c1 [Example 15, (5-Methyl-2-[1,2,3]triazol-2-yl-phenyl)-[(R)-3-(3-[1,2,3]triazol-1-yl-benzyl)-morpholin-4-yl]-methanone] | 24 | 3160 | 14000 | – | –
Cc1ccc(-n2nccn2)c(C(=O)N2C[C@@H](C)OC[C@H]2Cc2cc(-c3ncccn3)ccc2F)c1 [Example 147, [(2R,5R)-5-(2-Fluoro-5-pyrimidin-2-yl-benzyl)-2-methyl-morpholin-4-yl]-(5-methyl-2-[1,2,3]triazol-2-yl-phenyl)-methanone] | – | 171 | 28000 | – | –
Cc1ccc(-n2nccn2)cc1C[C@@H]1COCCN1C(=O)c1ccccc1-n1nccn1 [Example 121, [(R)-3-(2-Methyl-5-[1,2,3]triazol-2-yl-benzyl)-morpholin-4-yl]-(2-[1,2,3]triazol-2-yl-phenyl)-methanone] | 26 | 1640 | 18000 | – | –
C[C@@H]1CN(C(=O)c2cccc(Cl)c2-n2nccn2)[C@H](Cc2cccc(-n3nccn3)c2)CO1 [Example 172, (3-Chloro-2-[1,2,3]triazol-2-yl-phenyl)-[(2R,5R)-2-methyl-5-(3-[1,2,3]triazol-2-yl-benzyl)-morpholin-4-yl]-methanone] | 3 | 93 | 23000 | – | –
Cc1ccc(C(=O)N2CCOC[C@H]2Cc2cccc(-n3cccn3)c2)c(-n2nccn2)c1 [Example 22, (4-Methyl-2-[1,2,3]triazol-2-yl-phenyl)-[(R)-3-(3-pyrazol-1-yl-benzyl)-morpholin-4-yl]-methanone] | 3 | 318 | 41000 | – | –
Cc1ccc(-n2nccn2)c(C(=O)N2CCOC[C@H]2Cc2cc(-c3ncccn3)ccc2F)c1 [Example 155, [(R)-3-(2-Fluoro-5-pyrimidin-2-yl-benzyl)-morpholin-4-yl]-(5-methyl-2-[1,2,3]triazol-2-yl-phenyl)-methanone] | – | 371 | 30000 | – | –
Cc1cccc(C(=O)N2CCOC[C@H]2Cc2cccc(-c3ncon3)c2)c1-n1nccn1 [Example 83, (3-Methyl-2-[1,2,3]triazol-2-yl-phenyl)-[(R)-3-(3-[1,2,4]oxadiazol-3-yl-benzyl)-morpholin-4-yl]-methanone] | 7 | – | 25000 | – | –
O=C(c1ccc(Cl)cc1-n1nccn1)N1CCOC[C@H]1Cc1cc(-c2ncccn2)ccc1F [Example 160, (4-Chloro-2-[1,2,3]triazol-2-yl-phenyl)-[(R)-3-(2-fluoro-5-pyrimidin-2-yl-benzyl)-morpholin-4-yl]-methanone] | – | 268 | 17000 | – | –
Cc1ccc(C(=O)N2CCOC[C@H]2Cc2cc(-c3ncccn3)ccc2F)c(-n2nccn2)c1C [Example 158, (3,4-Dimethyl-2-[1,2,3]triazol-2-yl-phenyl)-[(R)-3-(2-fluoro-5-pyrimidin-2-yl-benzyl)-morpholin-4-yl]-methanone] | – | 2260 | 40000 | – | –
Cc1ccc(-n2nccn2)c(C(=O)N2CCOC[C@H]2Cc2cccc(-c3ncccn3)c2)c1F [Example 49, (2-Fluoro-3-methyl-6-[1,2,3]triazol-2-yl-phenyl)-[(R)-3-(3-pyrimidin-2-yl-benzyl)-morpholin-4-yl]-methanone] | – | 582 | 21000 | – | –
O=C(c1ccccc1-n1nccn1)N1CCC[C@H]1Cc1cccc(-n2nccn2)c1 [Ref. 1] | 4 | – | 5500 | – | –
Cc1ccc(C(=O)N2C[C@@H](C)OC[C@H]2Cc2cccc(-c3ncccn3)c2)c(-n2nccn2)c1C [Example 112, (3,4-Dimethyl-2-[1,2,3]triazol-2-yl-phenyl)-[(2R,5R)-2-methyl-5-(3-pyrimidin-2-yl-benzyl)-morpholin-4-yl]-methanone] | – | 839 | > 50000 | – | –
C[C@@H]1CN(C(=O)c2ccc(Cl)cc2-n2nccn2)[C@H](Cc2cc(-c3ncccn3)ccc2F)CO1 [Example 153, (4-Chloro-2-[1,2,3]triazol-2-yl-phenyl)-[(2R,5R)-5-(2-fluoro-5-pyrimidin-2-yl-benzyl)-2-methyl-morpholin-4-yl]-methanone] | – | 85 | 18000 | – | –
